Results from US20250319012A1, “METHOD FOR PREPARING LOW-MOLECULAR-WEIGHT SILK SERICIN, AND COSMETIC COMPOSITION COMPRISING SERICIN PREPARED THEREBY” (HEWON CO., LTD., priority 2021, published 2025).

Test system: soluble sericin
Assay: Hydrolytic activity of enzymes on soluble sericin (absorbance of supernatant at 271 nm)
Assay type: biochemical
Conditions: 10% enzyme, pH 7, 8 hours, 30-70° C. tested
Protocol: To confirm the degree of hydrolysis of sericin according to the kinds of enzyme, a total of 7 kinds of endopeptidase type alcalase, esperase, protamax, bromelain, papain, neutrase and exopeptidase type flavourzyme were prepared. At this time, sericin extracted from the sericin prepared in Preparation Example 1 at 120° C. for 30 minutes was used as a substrate sample, and after centrifugation, insoluble sericin was removed and soluble sericin was used. […]
The reactants after hydrolysis were subjected to enzyme inactivation at 85° C. for 10 min, and then the supernatant was collected by centrifugation (10,000 rpm, 10 min). After diluting the supernatant 20 times with D/W, the absorbance value measured at 271 nm, which is the maximum absorption wavelength of sericin, with a spectrophotometer (UV/VIS Nano Spectrophotometer, Nabi, Microdigital) was used as a measure of solubility.
In order to minimize the change in pH during the enzyme reaction of Preparation Example 2, the pH was adjusted using 1 M acetic acid and an average of 26.5% ammonia hydroxide. 1 mg of soluble sericin was treated with 0.1 mg of an enzyme (10% of sericin concentration), […], and then the supernatant was collected to measure the absorbance with pH change. […]

temperature at which high hydrolytic activity was shown [°C] | Molecule
50 | bromelain
60 | papain: endopeptidase type enzyme (protein, UniProt P00784 134-345, looked up) Papain: IPEYVDWRQKGAVTPVKNQGSCGSCWAFSAVVTIEGIIKIRTGNLNEYSEQELLDCDRRSYGCNGGYPWSALQLVAQYGIHYRNTYPYEGVQRYCRSREKGPYAAKTDGVRQVQPYNEGALLYSIANQPVSVVLEAAGKDFQLYRGGIFVGPCGNKVDHAVAAVGYGPNYILIKNSWGTGWGENGYIRIKRGTGNSYGVCGLYTSSFYPVKN
